Test results reported in publication PMC6774960, “Design, synthesis and biological evaluation of a series of new resveratrol analogues as potential anti-cancer agents” (Royal Society Open Science, 2019).

Assays:
[1] = tested on: HepG2 cells; assay: MTT anti-proliferation assay, HepG2; assay type: cell-based, human; settings: Homo sapiens, HepG2, 24 h, average of three determinations
Experimental: (§1) The 22 synthesized resveratrol compounds were evaluated for anti-proliferative activities against three human cancer cell lines, including HepG2, A549 and HeLa cells, using 3-[4,5-dimethylthiazol-2-yl]-2,5 diphenyl tetrazolium bromide (MTT) assays. Paclitaxel, a well-known tubulin inhibitor, was used as a positive control. […] Therefore, the inhibitory activity of the compounds depended not only on the 2-position substitution of acrylic acid, but also on the 3-position substitution of acrylic acid.
(§2) The anti-proliferative and cytotoxicity activity was determined using MTT assay. Human cervical carcinoma HeLa cells, human hepatocellular carcinoma HepG2 cells, human lung carcinoma A549 cells were representative in the anti-proliferation assay, which were obtained from the Shanghai Institute of Cell Biology (Shanghai, China). Normal African green monkey kidney Vero cells were a gift from Dr Xiumiao He at Guangxi University for Nationalities. Normal human hepatocytes LO2 cells were a gift from Dr Xing Lin at Guangxi Medical University. The HepG2, Hela, LO2 and Vero cells were cultured in Dulbecco's modified Eagle's medium (DMEM, Gibco) and the A549 cells were cultured in RPMI1640 (Gibco), both media were supplemented with 10% fetal calf serum and antibiotics (100 IU ml^−1 penicillin, 100 IU ml^−1 streptomycin; Amresco).
(§3) Cells were seeded in 96-well microtiter plates at a density of 1 × 10^4 cells well^−1 and incubated with different concentrations of compound (6.25, 12.50, 25.00, 50.00 to 100.00 µM), cisplatin and paclitaxel in RPMI-1640 or DMEM at 37°C with 5% CO2. After 24 h, cell morphology was observed using a light microscope, and then 20 µl of MTT solution (5 mg ml^−1) was added to the well and incubated for 4 h, then cell survival was determined by measuring the optical density (OD) absorbance at a wavelength of 570 nm using an ELISA microplate reader. The inhibition rate (IR) following each compound treatment was determined by the following equation: IR (%) = (1 − ODexp/ODcon) × 100%, where ODexp and ODcon are the OD of the treated and untreated cells, respectively. Cisplatin and paclitaxel were used as positive control drugs.

[2] = MTT cytotoxicity test, LO2; assay type: cell-based, human; settings: human, LO2 cells (normal human hepatocytes), average of three determinations
Experimental: (§4) Vero cells are non-tumorigenic cell lines and are important raw materials as the research and production of biological products. Vero cells show low tumorigenicity and had been approved for use in the production of human virus vaccines. Thus, Vero cells were chosen as a control for cytotoxicity. All compounds were evaluated for their cell toxicity against Vero and normal human hepatocytes cells line (LO2) using MTT assays.
as §2, §3

[3] = tested on: HeLa cells; assay: MTT anti-proliferation assay, HeLa; assay type: cell-based, human; settings: Homo sapiens, HeLa, 24 h, average of three determinations
Experimental: The 22 synthesized resveratrol compounds were evaluated for anti-proliferative activities against three human cancer cell lines, including HepG2, A549 and HeLa cells, using 3-[4,5-dimethylthiazol-2-yl]-2,5 diphenyl tetrazolium bromide (MTT) assays. Paclitaxel, a well-known tubulin inhibitor, was used as a positive control.
as §2
After 24 h, cell morphology was observed using a light microscope, and then 20 µl of MTT solution (5 mg ml^−1) was added to the well and incubated for 4 h, then cell survival was determined by measuring the optical density (OD) absorbance at a wavelength of 570 nm using an ELISA microplate reader. […] Cisplatin and paclitaxel were used as positive control drugs.

[4] = MTT cytotoxicity test, Vero; assay type: cell-based, African green monkey; settings: African green monkey, Vero cells (normal African green monkey kidney), average of three determinations
Experimental: as §4, §2, §3

[5] = tested on: A549 cells; assay: MTT anti-proliferation assay, A549; assay type: cell-based, human; settings: Homo sapiens, A549, 24 h, average of three determinations
Experimental: as §1, §2, §3

Structure (SMILES)	IC50 [1]	CC50 at 24 h [2]	IC50 [3]	melting point	CC50 at 24 h [4]	IC50 [5]
COc1cc(C(=Cc2cccc(C(F)(F)F)c2)C(=O)O)cc(OC)c1OC [compound h, 3-(3-(trifluoromethyl)phenyl)-2-(3,4,5-trimethoxyphenyl) acrylic acid]	47 ± 4 µM	75 ± 4 µM	26 ± 4 µM	162 to 164 °C	> 100 µM	32 ± 5 µM
CC(=O)O[C@H]1C(=O)[C@@]2(C)[C@H]([C@H](OC(=O)c3ccccc3)[C@]3(O)C[C@H](OC(=O)[C@H](O)[C@@H](NC(=O)c4ccccc4)c4ccccc4)C(C)=C1C3(C)C)[C@]1(OC(C)=O)CO[C@@H]1C[C@@H]2O [paclitaxel, reference compound]	0.39 ± 0.03 µM	> 100 µM	0.7 ± 0.1 µM		98 ± 1 µM	0.17 ± 0.03 µM
COc1cc(C(=Cc2cc([N+](=O)[O-])ccc2Cl)C(=O)O)cc(OC)c1OC [compound d, 3-(2-chloro-5-nitrophenyl)-2-(3,4,5-trimethoxyphenyl) acrylic acid]	> 100 µM	93 ± 2 µM	62 ± 3 µM	247 to 248 °C	> 100 µM	> 100 µM
COc1ccc(C(=Cc2c(Cl)cccc2Cl)C(=O)O)cc1 [compound o, 3-(2,6-dichlorophenyl)-2-(4-methoxyphenyl) acrylic acid]	48 ± 5 µM	> 100 µM	10 ± 2 µM	319 to 320 °C	> 100 µM	21.3 ± 0.7 µM
COc1cc(C(=Cc2c(Cl)cccc2Cl)C(=O)O)cc(OC)c1OC [compound b, 3-(2,6-dichlorophenyl)-2-(3,4,5-trimethoxyphenyl) acrylic acid]	74 ± 4 µM	92 ± 2 µM	32 ± 3 µM	217 to 218 °C	> 100 µM	46 ± 3 µM
COc1cc(C(=Cc2ccc(Cl)cc2Cl)C(=O)O)cc(OC)c1OC [compound c, 3-(2,4-dichlorophenyl)-2-(3,4,5-trimethoxyphenyl) acrylic acid]	30 ± 3 µM	> 100 µM	46 ± 3 µM	228 °C	71 ± 2 µM	30 ± 1 µM
COc1cc(C(=Cc2ccc(C(F)(F)F)cc2)C(=O)O)cc(OC)c1OC [compound j, 3-(4-(trifluoromethyl)phenyl)-2-(3,4,5-trimethoxyphenyl) acrylic acid]	56.66 ± 0.02 µM	> 100 µM	19 ± 2 µM	259 °C	> 100 µM	18 ± 3 µM
COc1cc(C(=Cc2ccc(OC)c(OC)c2Cl)C(=O)O)cc(OC)c1OC [compound l, 3-(2-chloro-3,4-dimethoxyphenyl)-2-(3,4,5-trimethoxyphenyl) acrylic acid]	> 100 µM	64 ± 2 µM	89 ± 4 µM	171 to 173 °C	> 100 µM	> 100 µM
COc1cc(C(=Cc2ccccc2C(F)(F)F)C(=O)O)cc(OC)c1OC [compound i, 3-(2-(trifluoromethyl)phenyl)-2-(3,4,5-trimethoxyphenyl) acrylic acid]	42 ± 2 µM	> 100 µM	41 ± 4 µM	160 to 162 °C	> 100 µM	32 ± 2 µM
COc1cc(C(=Cc2cc(C(F)(F)F)ccc2Cl)C(=O)O)cc(OC)c1OC [compound k, 3-(2-chloro-5-(trifluoromethyl)phenyl)-2-(3,4,5-trimethoxyphenyl) acrylic acid]	100 ± 0.8 µM	88 ± 2 µM	> 100 µM	258 °C	71 ± 2 µM	> 100 µM
COc1cc(C(=Cc2ccc(OC(F)(F)F)cc2)C(=O)O)cc(OC)c1OC [compound f, 3-(4-(trifluoromethoxy)phenyl)-2-(3,4,5-trimethoxyphenyl) acrylic acid]	18.7 ± 0.9 µM	> 100 µM	20 ± 3 µM	208 °C	> 100 µM	19 ± 2 µM
COc1cc(C(=Cc2c(Cl)ccc(Cl)c2Cl)C(=O)O)cc(OC)c1OC [compound n, 3-(2,3,6-trichlorophenyl)-2-(3,4,5-trimethoxyphenyl) acrylic acid]	79 ± 4 µM	77 ± 1 µM	20 ± 2 µM	203 to 204 °C	63 ± 2 µM	27.2 ± 0.9 µM
COc1ccc(C(=Cc2ccc(OC(F)(F)F)cc2)C(=O)O)cc1 [compound p, 2-(4-methoxyphenyl)-3-(4-(trifluoromethoxy)phenyl) acrylic acid]	7.7 ± 0.3 µM	84 ± 2 µM	5.1 ± 0.8 µM	159 to 160 °C	93 ± 3 µM	14 ± 2 µM
COc1cc(C(=Cc2ccc(Cl)c(Cl)c2)C(=O)O)cc(OC)c1OC [compound a, 3-(3,4-dichlorophenyl)-2-(3,4,5-trimethoxyphenyl) acrylic acid]	50 ± 4 µM	27 ± 1 µM	27 ± 2 µM	233 to 235 °C	28.2 ± 0.5 µM	34 ± 2 µM
COc1cc(C(=Cc2ccccc2OC(F)(F)F)C(=O)O)cc(OC)c1OC [compound e, 3-(2-(trifluoromethoxy)phenyl)-2-(3,4,5-trimethoxyphenyl) acrylic acid]	> 100 µM	> 100 µM	61 ± 3 µM	164 °C	82 ± 2 µM	> 100 µM
COc1ccc(C(=Cc2ccc(OC)c(OC)c2Cl)C(=O)O)cc1 [compound t, 3-(2-chloro-3,4-dimethoxyphenyl)-2-(4-methoxyphenyl) acrylic acid]	93 ± 3 µM	87 ± 2 µM	24 ± 2 µM	202 °C	85 ± 1 µM	> 100 µM
COc1ccc(C(=Cc2c(Cl)ccc(Cl)c2Cl)C(=O)O)cc1 [compound u, 2-(4-methoxyphenyl)-3-(2,3,6-trichlorophenyl) acrylic acid]	> 100 µM	35 ± 1 µM	> 100 µM	174 °C	38.6 ± 0.7 µM	> 100 µM
